Data taken from paper PMC7355430, “Imunofan—RDKVYR Peptide—Stimulates Skin Cell Proliferation and Promotes Tissue Repair” (Molecules, 2020).
Several values for one entry are separate records, joined by “and”; a condition that tells them apart may be missing. Equal values may be shown once. Peptide text beside a SMILES is read from it.

What was measured:
C57BL/6 mice = test: Ear pinna injury, ear punch closure; type: in vivo, mouse
Description: Experiments were performed on 8–12 week-old female BALB/c (24 mice in total) and C57BL/6 mice (36 mice in total). All mice originated from the Centre for Experimental Medicine of the Medical University of Białystok, Poland, and were kept in the animal facility at the Nencki Institute of Experimental Biology throughout the course of the study. After delivery to the Nencki Institute animal facility, mice rested for at least two weeks for acclimatization before starting the experiment. Experiments were approved by the First Local Ethics Committee in Warsaw (permit No. 491/2013 and 542/2018). Animal experimentation was performed in accordance with EU directive 2010/63/EU, and all experiments were undertaken in such a way as to minimize discomfort and the number of animals used in the study.
Mice were placed individually in separate cages, weighed, and randomly divided into two groups within each mouse strain: The treatment group and the control group. Before the study all mice were randomly given numerical equivalents, and all experimenters performing further analysis were not aware of the experimental group and referred solely to those numbers. Similarly, vials containing IM (treatment) or saline (control) were encrypted and assigned to particular mice, so the person performing injections and ear photographs was not aware of mice background. Lastly, the person quantifying each ear hole closure was not aware of the group. Numerical equivalents of each mice were only decrypted at the end of the study. […]
To monitor the progress of wound healing, ears were photographed on the day of the injury (day 0, before and right after pinna injury), and on days 7, 14, 21, 28, 35, and 42. […] Finally, the area of the wound hole was outlined by hand on digitized images as an overlay, and the hole areas in the ears were evaluated using computer-assisted image analysis (ImageJ Software). […] The final number of analyzed ears was 23 per group on day 42. […] The final number of analyzed ears on day 42 was 32 in the control group and 16 in the treatment group.

[1] = system: primary cortical neural cultures; test: Neural viability, CellTiterBlue assay; type: cell-based, Wistar rat; conditions: 1, 10, 100, 200 µM, 20 h, 37 °C; CellTiterBlue (Figure S6)
Description: Neural viability assessments. Primary cortical neural cultures were obtained from E18.5 Wistar rat embryos. For this purpose, the rat was euthanized in a CO2 chamber. The cortex tissue was immediately excised from the brain, moved to a HBSS medium (diluted 10 × and supplemented with a penicilin/streptomycin mixture), and washed precisely. Afterwards, the tissue was trypsinized for 10 min at 37 °C, and homogenized gently. […] Neural viability was quantitatively examined by CellTiterBlue® (CTB) assay (Promega, G8080) after 20-hour long incubation of the cells at 37 °C in the CO2. […] Fluorescence intensity of the CTB reagent is measured spectrofluorymetrically (560ex/590em) and is proportional to the number of viable cells. No insult sample referred as a 100% viability control and the data from the insulted cells was quantified and presented relatively as mean ± SD. The data was analyzed by a Mann-Whitney test with p-value < 0.05 values considered statistically significant. […]
Influence of Imunofan on neural viability. Influence of Imunofan on neural viability was assessed by exposing the cells to different peptide concentrations (1, 10, 100, 200 µM) for 20 h at 37 °C in a 5% CO2 chamber. […]

Stability in water = type: physicochemical; conditions: 1 mg/mL in sterile water, 37 °C, 24 h; HPLC Luna C18(2), PDA; 3 independent experiments, n=3 (Figure S1)
Description: A stock of IM peptide in sterile water (1 mg/mL) was prepared and divided into 200 µL portions. The sample tubes were stored in an incubator at 37 °C and analysis was performed at various time points (0, 1, 2, 3, 6, and 24 h). The analyses were performed by HPLC using a Luna C18(2) (5 µm, 100 Å 4.6 by 250 mm) column (Phenomenex, Torrance, CA, USA) and monitored by a PDA detector. Then, 0.01% TFA in H2O (A) and 0.01% TFA in 80% ACN in water (B) were used as solvents. A linear gradient of 5–100% B over 60 min and a flow rate of 1 mL/min was applied.
For calculations, peak areas were compared to a calibration curve calculated by LC solution Software (Shimadzu, Kyoto, Japan).

CC(C)[C@H](NC(=O)[C@H](CCCCN)NC(=O)[C@H](CC(=O)O)NC(=O)[C@@H](N)CCCNC(=N)N)C(=O)N[C@@H](Cc1ccc(O)cc1)C(=O)N[C@@H](CCCNC(=N)N)C(=O)O [IM, H-Arg-Asp-Lys-Val-Tyr-Arg-OH] (H-RDKVYR-OH)
mean ear hole area (C57BL/6 mice; C57BL/6, day 42 post-injury, 2 mm punch, s.c. 5.0 µg/g, 10 injections, mean ± SD, saline control 3.10 ± 0.74): 1.67 ± 0.45 mm^2
ear hole closure (C57BL/6 mice; C57BL/6, day 42 post-injury, s.c. 5.0 µg/g, 10 injections, mean ± SD, saline control 8.0% ± 36.8%): 43.6% ± 13.9% and 44%
tissue repair in comparison to control (C57BL/6 mice; C57BL/6, ear pinna injury, as summarised in the abstract): 36%
toxicity to primary neural cells (viability) [1]: not toxic
signal from the IM peptide after incubation in water (Stability in water): no reduction of the signal
